Reference: ChEMBL document CHEMBL1201862, “PubChem BioAssay data set” (2004)
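Test compounds were applied to cells in 96-well plates for 48 hours at 5 doses. GI50 = concentration required for 50% inhibition of growth.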 Activity calls are given as the source filed them. Cut-off read from the data, not from the text of the source: active = GI50 up to about 1.1 µM and inactive = higher.

What was measured:
Assay in all cases: NCI tumour cell line growth inhibition, 48 h
UO-31 = test system: UO-31
RXF 393 = test system: RXF 393
PC-3 = test system: PC-3
Malme-3M = test system: Malme-3M
DU-145 = test system: DU-145
HOP-62 = test system: HOP-62
HT-29 = test system: HT-29
TK-10 = test system: TK-10
HCT-15 = test system: HCT-15
M14 = test system: M14
BT-549 = test system: BT-549
OVCAR-8 = test system: OVCAR-8
IGROV-1 = test system: IGROV-1
MOLT-4 = test system: MOLT-4
HCC 2998 = test system: HCC 2998
OVCAR-4 = test system: OVCAR-4
A498 = test system: A498
SF-295 = test system: SF-295
MDA-N = test system: MDA-N

Row | SMILES | GI50 (UO-31) | GI50 (RXF 393) | GI50 (PC-3) | GI50 (Malme-3M) | GI50 (DU-145) | GI50 (HOP-62) | GI50 (HT-29) | GI50 (TK-10) | GI50 (HCT-15) | GI50 (M14) | GI50 (BT-549) | GI50 (OVCAR-8) | GI50 (IGROV-1) | GI50 (MOLT-4) | GI50 (HCC 2998) | GI50 (OVCAR-4) | GI50 (A498) | GI50 (SF-295) | GI50 (MDA-N)
1 | CCOC(=O)C(=Cc1ccccc1Br)C(=O)OCC | 2.25 µM (inactive) | 2.1 µM (inactive) | 2.93 µM (inactive) | 3.48 µM (inactive) | 0.508 µM (active) | 2.37 µM (inactive) | 3.36 µM (inactive) | 3.47 µM (inactive) | 1.67 µM | 0.424 µM (active) | 2.51 µM (inactive) | 2.38 µM (inactive) | 1.96 µM (inactive) | 0.32 µM (active) | 2.78 µM (inactive) | 4.09 µM (inactive) | 2.03 µM (inactive) | 3.26 µM (inactive) | –
2 | O=S1(=O)C(c2ccccc2)=C(O)c2ccccc21 | > 100 µM (inactive) | 35.8 µM (inactive) | > 100 µM (inactive) | > 100 µM (inactive) | > 100 µM (inactive) | > 100 µM (inactive) | > 100 µM (inactive) | > 100 µM (inactive) | > 100 µM | > 100 µM (inactive) | > 100 µM (inactive) | > 100 µM (inactive) | > 100 µM (inactive) | > 100 µM (inactive) | > 100 µM (inactive) | > 100 µM (inactive) | > 100 µM (inactive) | > 100 µM (inactive) | –
3 | CN(C)c1ccc(/C=N/N=C2\C(=O)Nc3c(Cl)cc(Cl)cc32)cc1 | 22.9 µM (inactive) | 59.3 µM (inactive) | 29.5 µM (inactive) | 25.2 µM (inactive) | – | 39.7 µM (inactive) | 26.1 µM (inactive) | 94.8 µM (inactive) | 32.4 µM | 45.9 µM (inactive) | 36.6 µM (inactive) | 93.1 µM (inactive) | 24.2 µM (inactive) | 16.4 µM (inactive) | 64 µM (inactive) | > 100 µM (inactive) | 32.2 µM (inactive) | 32.9 µM (inactive) | 13.5 µM (inactive)
4 | C=C[C@@]1(O)CCCC2=C(C(=O)OCC)CC[C@]21C | > 100 µM (inactive) | > 100 µM (inactive) | – | > 100 µM (inactive) | – | – | 64.4 µM (inactive) | > 100 µM (inactive) | > 100 µM | 78.7 µM (inactive) | – | > 100 µM (inactive) | > 100 µM (inactive) | 26.1 µM (inactive) | > 100 µM (inactive) | – | – | > 100 µM (inactive) | –
5 | NNC(=O)Cn1ccnn1 | – | – | > 100 µM (inactive) | > 100 µM (inactive) | > 100 µM (inactive) | > 100 µM (inactive) | > 100 µM (inactive) | > 100 µM (inactive) | > 100 µM | > 100 µM (inactive) | > 100 µM (inactive) | > 100 µM (inactive) | > 100 µM (inactive) | > 100 µM (inactive) | > 100 µM (inactive) | – | – | > 100 µM (inactive) | –
6 | Nc1ccccc1Nc1ccccc1C(=O)[O-].Nc1ccccc1Nc1ccccc1C(=O)[O-].[Zn+2] | > 100 µM (inactive) | – | – | > 100 µM (inactive) | – | > 100 µM (inactive) | > 100 µM (inactive) | > 100 µM (inactive) | > 100 µM | 51.4 µM (inactive) | – | > 100 µM (inactive) | 40.6 µM (inactive) | > 100 µM (inactive) | > 100 µM (inactive) | – | > 100 µM (inactive) | 32.8 µM (inactive) | –
7 | O=C(O)c1ccc2nc(-c3ccccn3)c(-c3ccccn3)nc2c1 | > 100 µM (inactive) | > 100 µM (inactive) | > 100 µM (inactive) | – | > 100 µM (inactive) | > 100 µM (inactive) | > 100 µM (inactive) | > 100 µM (inactive) | > 100 µM | > 100 µM (inactive) | > 100 µM (inactive) | > 100 µM (inactive) | > 100 µM (inactive) | > 100 µM (inactive) | > 100 µM (inactive) | > 100 µM (inactive) | > 100 µM (inactive) | > 100 µM (inactive) | –
8 | O=C1CCCN(c2ccccc2)N1 | > 100 µM (inactive) | > 100 µM (inactive) | – | > 100 µM (inactive) | – | > 100 µM (inactive) | > 100 µM (inactive) | – | > 100 µM | > 100 µM (inactive) | – | > 100 µM (inactive) | > 100 µM (inactive) | > 100 µM (inactive) | > 100 µM (inactive) | > 100 µM (inactive) | > 100 µM (inactive) | > 100 µM (inactive) | –
9 | O=C(NCCCCNCCCNC(=O)c1ccccc1)c1ccccc1 | > 100 µM (inactive) | > 100 µM (inactive) | > 100 µM (inactive) | – | > 100 µM (inactive) | > 100 µM (inactive) | > 100 µM (inactive) | > 100 µM (inactive) | > 100 µM | > 100 µM (inactive) | > 100 µM (inactive) | > 100 µM (inactive) | > 100 µM (inactive) | > 100 µM (inactive) | > 100 µM (inactive) | > 100 µM (inactive) | > 100 µM (inactive) | > 100 µM (inactive) | –
